The record followed here is patent publication US20260042747A1, “KIT INHIBITORS, COMPOUNDS, PHARMACEUTICAL COMPOSITIONS, AND METHODS OF USE THEREOF” (Alivexis, Inc., priority 2022, published 2026).

Where a name gives a salt, the structure may show the parent alone. Read-outs that look alike come from different tables or passages of the source.

Assay [1] deals with M-07e cells. The assay is described as follows: SCF-dependent M-07e cell proliferation assay. Format: cell-based, human. As to conditions: read-out: M-07e IC50. Here is the method: SCF-dependent cell proliferation assay was developed to measure the inhibitory potency of the compounds in M-07e cells, which express wild-type human KIT protein. The assay was performed in 96-well plates and the IC50 of each KIT inhibitor was determined by CellTiter Glo Assay reagent and Victor X5 Multilabel Counter (Perkin Elmer).
M-07e cells were purchased from AcceGen Biotechnology. Cells were maintained with M-07e Growth medium: RPMI-1640 containing 20% FBS, 100 U/mL penicillin and 100 microgram/mL streptomycin, 10 ng/mL rhGM-CSF, 10 ng/mL rhSCF. M-07e cells were seeded at a density of 5000 cells/90 μL/well in 96-well plates. Test compounds were dissolved in 100% DMSO to make 20 mM stock solution and serially diluted 1:3 with 100% DMSO to make an 11-point dilution series with concen-trations from […] to 0.024 μM. The serially diluted compounds were then each diluted 1:50 with culture medium to obtain assay compound solutions containing 2% DMSO. Ten μL of assay compound solutions were added to the 90 μL of culture cell suspension in the 96-well plate, with a final DMSO concentration of 0.2%. The plates were then incubated in a 5% CO2 incubator at 37° C. for 3 days. To obtain Day Zero Controls for background calculation, cells were seeded at 5000 cells/100 μL in a new 96-well plate and processed on the same day. Both Day Zero controls and 3 day culture plates were then treated as follows. 100 μL of CellTiter Glo Assay reagent was added to each well and the plate was incubated at room temperature for 15 min on a shaker at 200-300 RPM. Then 100 μL of cell lysate samples were transferred to white wall 96-well plates and luminescence was measured by a plate reader. The luminescence of Day Zero Control was subtracted from the luminescence intensity of 3 day culture readings. The assay control for this experiment was cells treated with 0.2% DMSO in culture medium and wells with 100 μL of culture medium (0.2% DMSO without cells) were used as the blank for data analysis.
The IC50 value of each compound was determined by using % inhibition by nor-malizing inhibition in DMSO treated control wells to 0% using the following formula method: […]
Plot percent inhibition in proliferation of triplicates against the respective concen-trations of compound and fit the dose response curve using the sigmoidal dose response equation to generate the IC50 in GraphPad Prism 8 software.

For assay [2], the target named is recombinant human KIT tyrosine kinase protein (Homo sapiens (Human), UniProt P10721). Briefly: KIT tyrosine kinase assay (ADP-Glo). Format: biochemical. As to the method:
An in vitro assay utilizing the recombinant human KIT tyrosine kinase protein was developed to measure compound inhibition of KIT. KIT tyrosine kinase activity was measured by the ADP-Glo Kinase Assay system with poly […]) peptide substrate. Kinase Assay was performed in white 384-well plates and the luminescence was measured by Victor X5 Multilabel Counter (Perkin Elmer). Recombinant intracellular domain of human KIT protein was purchased from Carna Biosciences (Kobe, Japan). Poly […]) peptide was purchased from Sigma-Aldrich (St. Louis, Missouri, USA). ADP-Glo Kinase Assay reagent was purchased from Promega (Madison, Wisconsin, USA). Each test compound was dissolved in 100% DMSO to prepare 10 mM stock solutions. […] After the preincubation, 3 μL of substrate/ATP mixture was added and incubated for 1 hour at room temperature. The tyrosine phosphorylation by KIT kinase was quantified by ADP-Glo kinase assay kit following the manufacturer's protocol. Briefly, the phosphorylation reaction was terminated by adding 10 μL ADP-Glo reagent and incubated for 60 minutes at room temperature. 20 μL of Kinase Detection Reagent was added to each well and luminescence was measured by plate reader. […] Half maximal inhibitory concentration (IC50) was calculated by a Four […] Logistic Regression model using GraphPad Prism (GraphPad Software). The value without recombinant KIT protein and without test compound was used as a negative control (assay background).
Background: ADP-Glo turns the ADP formed in a reaction into a luminescent signal.

Where [3] appears, read: Homo sapiens, M-07e, 72 h, SCF-dependent M-07e cell proliferation, 3 days, CellTiter Glo.
The mark [4] stands for this setting: SCF-dependent M-07e cell proliferation, 3 days, CellTiter Glo.

Chain of recombinant human KIT tyrosine kinase protein (P10721 546-976): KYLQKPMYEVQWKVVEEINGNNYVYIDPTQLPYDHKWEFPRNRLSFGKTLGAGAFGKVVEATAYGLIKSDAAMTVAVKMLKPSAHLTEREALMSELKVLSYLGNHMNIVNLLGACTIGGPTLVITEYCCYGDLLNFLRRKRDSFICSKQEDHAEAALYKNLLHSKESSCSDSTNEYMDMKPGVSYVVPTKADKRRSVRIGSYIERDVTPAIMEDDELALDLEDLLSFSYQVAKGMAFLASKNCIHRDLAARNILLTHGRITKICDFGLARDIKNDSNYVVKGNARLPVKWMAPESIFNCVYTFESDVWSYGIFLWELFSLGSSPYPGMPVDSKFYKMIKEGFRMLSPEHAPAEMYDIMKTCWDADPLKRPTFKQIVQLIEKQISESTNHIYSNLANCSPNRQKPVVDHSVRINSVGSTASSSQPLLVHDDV

By IC50 is commonly meant the midpoint of a concentration-inhibition curve. As for `C[C@@H]1CCCN1c1ccc(CNC(=O)c2ccc3c(c2)[nH]c(=O)n3C)cn1` [Example 99], the half-maximal inhibitory concentration (IC50) stood at 540 nM in assay [1] (Homo sapiens, M-07e, 72 h) and 50 nM in assay [2] (Table 98).

For the compound `CN(c1ccc(CNC(=O)c2ccc3c(c2)[nH]c(=O)n3C)cn1)C1CC2(C1)CC2(F)F` (stereo not shown) [Example 125], the IC50 in assay [1] (Homo sapiens, M-07e, 72 h) stood at 151 nM; in assay [2] (Table 99), 31 nM.

As to `CN(c1ccc(CNC(=O)c2cc3[nH]c(=O)n(C)c3cc2F)cn1)C1CC(F)(F)C1` [Example 139], the values for the IC50 in assay [1] (setting [3]) and in assay [2] (Table 99) were 636 nM and 75 nM, respectively.

For the compound `C[C@H]1CCCN1c1cnc(CNC(=O)c2ccc3c(c2)[nH]c(=O)n3C)cn1` [Example 98], the half-inhibitory concentration (IC50) in assay [1] (Homo sapiens, M-07e, 72 h) turned out to be 990 nM; in assay [2] (Table 98) it was 71 nM.

`CN(c1ccc(CNC(=O)c2ccc3c(c2)[nH]c(=O)n3C)cn1)C1CCC(F)(F)CC1` [Compound 10, N-((6-((4,4-Difluorocyclohexyl)(methyl)amino)pyridin-3-yl)methyl)-1-methyl-2-oxo-2,3-dihydro-1H-benzimidazole-5-carboxamide]: the half-maximal inhibitory concentration (IC50) in assay [1] (setting [3]) was determined as 240 nM.

In the case of `CC(C)N(C)c1ccc(CNC(=O)c2ccc3[nH]c(=O)[nH]c3c2)cn1` [Example 129], the figures for the IC50 in assay [1] (setting [3]) and in assay [2] (Table 99) were 1020 nM and 20 nM, respectively.

`CN(c1ccc(CNC(=O)c2ccc3c(c2)[nH]c(=O)n3C)cn1)C1CC(OC(F)F)C1` (single isomer, unassigned) [106 Isomer I, N-((6-((3-(Difluoromethoxy)cyclobutyl)(methyl)amino)pyridin-3-yl)methyl)-1-methyl-2-oxo-2,3-dihydro-1H-benzimidazole-5-carboxamide]: the half-maximal inhibitory concentration (IC50) is 15 nM in assay [1] (setting [4]) and 36 nM in assay [2] (Table 99).

For `Cn1c(=O)[nH]c2cc(C(=O)NCc3cnc4c(ccn4-c4ccccc4F)c3)ccc21` [Example 100], the 50% inhibitory concentration (IC50) worked out at 250 nM in assay [1] (Homo sapiens, M-07e, 72 h) and 53 nM in assay [2] (Table 98).

Turning to `CN(c1ccc(CNC(=O)c2ccc3c([nH]c(=O)n3C)c2F)cn1)C1CCC(F)(F)C1` (stereo not shown) [Example 147], the IC50 in assay [1] (setting [3]) came to 440 nM; in assay [2] (Table 99), 23 nM.

Take `CC(c1ccccc1)N(C)c1ccc(CNC(=O)c2ccc3c(c2)[nH]c(=O)n3C)cn1` (single isomer, unassigned) [82 Peak 1]: the half-maximal inhibitory concentration (IC50) in assay [1] (setting [4]) worked out at 6300 nM; in assay [2] (Table 98) it was 180 nM.

Take `CN(c1ccc(CNC(=O)c2ccc3c(c2)[nH]c(=O)n3C)cn1)C1CC2(CC2)C1` [Example 109, 1-Methyl-N-((6-(methyl(spiro[2.3]hexan-5-yl)amino)pyridin-3-yl)methyl)-2-oxo-2,3-d ihydro-1H-benzimidazole-5-carboxamide formate]: the concentration for half-maximal inhibition (IC50) was 12 nM in assay [1] (setting [3]) and 25 nM in assay [2] (Table 99).

With `CN(c1ccc(CNC(=O)c2cc3[nH]c(=O)[nH]c3cc2F)cn1)C1CCC(F)(F)C1` (stereo not shown) [Example 140], the 50% inhibitory concentration (IC50) in assay [1] (setting [3]) was determined as 99 nM; in assay [2] (Table 99), 18 nM.

Take `Cn1c(=O)[nH]c2cc(C(=O)NCc3ccc(Nc4ccc(F)cc4)nc3)ccc21` [Example 57]: the IC50 was 7300 nM in assay [1] (setting [3]) and 227 nM in assay [2] (Table 98).

As for `COc1cc(C(=O)NCc2ccc(N(C)[C@H]3C[C@@H](C(F)(F)F)C3)nc2)cc2[nH]c(=O)[nH]c12` [Example 145], the IC50 in assay [1] (Homo sapiens, M-07e, 72 h) came to 515 nM; in assay [2] (Table 99) it was 15 nM.

Regarding `CN(c1ccc(CNC(=O)c2ccc3c(c2)[nH]c(=O)n3C)cn1)[C@H]1CC[C@@H](F)C1` [Example 110, N-((6-(((1S,3R)-3-Fluorocyclopentyl)(methyl)amino)pyridin-3-yl)methyl)-1-methyl-2-ox o-2,3-dihydro-1H-benzimidazole-5-carboxamide], the IC50 in assay [1] (setting [3]) was 55 nM; in assay [2] (Table 99) it was 33 nM.

As for `Cn1c(=O)[nH]c2cc(C(=O)NCc3ccc(Oc4ccc(Cl)cc4F)nc3)ccc21` [Example 39], the half-maximal inhibitory concentration (IC50) is 140 nM in assay [1] (Homo sapiens, M-07e, 72 h) and 35 nM in assay [2] (Table 98).

On to `Cn1c(=O)[nH]c2cc(C(=O)NCc3cnc4c(c3)CCN4c3ccccc3F)ccc21` [Compound 19, N-((1-(2-Fluorophenyl)-2,3-dihydro-1H-pyrrolo[2,3-b]pyridin-5-yl)methyl)-1-methyl-2-o xo-2,3-dihydro-1H-benzimidazole-5-carboxamide], for which the values for the IC50 in assay [1] (setting [3]) and in assay [2] (Table 98) were 160 nM and 60 nM, respectively.

For `CN(c1ccc(CNC(=O)c2cc(F)c3[nH]c(=O)[nH]c3c2)cn1)C1CCC(F)(F)CC1` [Example 143], the IC50 was 1460 nM in assay [1] (setting [3]) and 35 nM in assay [2] (Table 99).

On to `CN(c1ccc(CNC(=O)c2ccc3[nH]c(=O)[nH]c3c2)cn1)C1CCC(F)(F)CC1` [Example 128], for which the concentration for half-maximal inhibition (IC50) in assay [1] (setting [3]) came to 2830 nM.

For `CC(NC(=O)c1ccc2c(c1)[nH]c(=O)n2C)c1ccc(Oc2ccc(F)cc2)nc1` (single isomer, unassigned) [Compound 6 Peak 1, N-(1-(6-(4-Fluorophenoxy)pyridin-3-yl)ethyl)-1-methyl-2-oxo-2,3-dihydro-1H-benzimid azole-5-carboxamide], the IC50 in assay [1] (setting [3]) was determined as 680 nM.

With `Cn1c(=O)[nH]c2cc(C(=O)NCc3ccc(C(F)c4ccc(F)cc4)nc3)ccc21` (stereo not shown) [Compound 16, N-((6-(Fluoro(4-fluorophenyl)methyl)pyridin-3-yl)methyl)-1-methyl-2-oxo-2,3-dihydro-1H-benzimidazole-5-carboxamide], in assay [2] (Table 98), the IC50 is 61 nM.

Regarding `C[C@H](NC(=O)c1ccc2c(c1)[nH]c(=O)n2C)c1ccc(Oc2cccc(F)c2F)nc1` [Example 55], in assay [2] (Table 98), the concentration for half-maximal inhibition (IC50) was 37 nM.

With `Cn1c(=O)[nH]c2cc(C(=O)NCc3ccc(OC4CC(F)(F)C4)nc3)ccc21` [Example 118], the IC50 in assay [2] (Table 99) worked out at 632 nM.

For the compound `CC(C)N(C)c1ccc(C(CO)NC(=O)c2ccc3c(c2)[nH]c(=O)n3C)cn1` (stereo not shown) [Example 114b, N-(2-hydroxy-1-(6-(Isopropyl(methyl)amino)pyridin-3-yl)ethyl)-1-methyl-2-oxo-2,3-dih ydro-1H-benzimidazole-5-carboxamide], the IC50 in assay [2] (Table 99) turned out to be 317 nM.

Turning to `CC(c1ccc(CNC(=O)c2ccc3c(c2)[nH]c(=O)n3C)cn1)N1CCC(C(F)(F)F)C1` (stereo not shown) [Example 112, 1-Methyl-2-oxo-N-((6-(1-(3-(trifluoromethyl)pyrrolidin-1-yl)ethyl)pyridin-3-yl)methyl)-2,3-dihydro-1H-benzimidazole-5-carboxamide], the “KIT % at single concentration (printed in KIT IC50 column)” value in assay [2] (@10 uM) came out at 59%@10 uM.

As to `CN(c1ccc(CNC(=O)c2ccc3c(c2)[nH]c(=O)n3C)cn1)C1CCOCC1` [Example 60], in assay [2] (Table 98), the half-inhibitory concentration (IC50) was determined as 140 nM.

Turning to `Cc1ccc(N(C)c2ccc(CNC(=O)c3ccc4c(c3)[nH]c(=O)n4C)cn2)cn1` [Example 63], the IC50 in assay [2] (Table 98) worked out at 37 nM.

With `Cn1c(=O)[nH]c2cc(C(=O)NCc3ccc(Oc4cccc(C#N)c4)nc3)ccc21` [Compound 22, N-((6-(3-Cyanophenoxy)pyridin-3-yl)methyl)-1-methyl-2-oxo-2,3-dihydro-1H-benzimid azole-5-carboxamide trifluoroacetate], the IC50 in assay [2] (Table 98) is 460 nM.

On to `C[C@H](NC(=O)c1ccc2c(c1)[nH]c(=O)n2C)c1ccc(Oc2ccc(Cl)cc2F)nc1` [Example 54], for which, in assay [2] (Table 98), the IC50 was determined as 33 nM.

In the case of `COC(=O)C(NC(=O)c1ccc2c(c1)[nH]c(=O)n2C)c1ccc(N(C)C(C)C)nc1` (stereo not shown) [Example 114a, Methyl 2-(6-(isopropyl(methyl)amino)pyridin-3-yl)-2-(1-methyl-2-oxo-2,3-dihydro-1H-benzimidazole-5-carboxamido)acetate], the concentration for half-maximal inhibition (IC50) in assay [2] (Table 99) turned out to be 108 nM.

For the compound `CN(Cc1ccccc1)c1ncc(CNC(=O)c2ccc3c(c2)[nH]c(=O)n3C)s1` [Example 91], the IC50 in assay [2] (Table 98) is 120 nM.

In the case of `CC(NC(=O)c1ccc2c(c1)[nH]c(=O)n2C)c1ccc(Oc2ccc(F)c(F)c2)nc1` (stereo not shown) [Example 51], the IC50 in assay [2] (Table 98) is 210 nM.
